Test results reported in US9834542B2, “LXR modulators” (BRISTOL-MYERS SQUIBB COMPANY, priority 2013, dated 2017).

Molecular target: T1, LXRβ (Homo sapiens, UniProt P55055)
T1 construct: Co-transfection expression plasmids, comprising full-length LXRα (pCMX-h LXRα[…] or LXRβ (pCMX-hLXRβ)); expressed in transfected cells; host or cells: CV-1 African Green Monkey Kidney Cells
T1 sequence (P55055 1-460): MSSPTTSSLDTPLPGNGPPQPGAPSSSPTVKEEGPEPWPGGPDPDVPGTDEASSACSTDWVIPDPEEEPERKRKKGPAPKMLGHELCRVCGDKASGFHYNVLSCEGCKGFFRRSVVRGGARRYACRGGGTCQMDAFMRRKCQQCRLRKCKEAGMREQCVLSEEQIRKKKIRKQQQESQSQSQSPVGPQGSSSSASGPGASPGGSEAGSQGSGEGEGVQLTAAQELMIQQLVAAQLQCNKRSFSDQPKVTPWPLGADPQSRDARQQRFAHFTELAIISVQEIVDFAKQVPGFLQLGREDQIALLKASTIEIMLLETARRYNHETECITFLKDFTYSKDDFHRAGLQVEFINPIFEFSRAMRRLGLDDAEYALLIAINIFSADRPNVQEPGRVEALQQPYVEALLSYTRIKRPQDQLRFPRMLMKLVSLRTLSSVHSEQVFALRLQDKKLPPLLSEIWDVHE
T1 sequence (P19793 1-462 partner): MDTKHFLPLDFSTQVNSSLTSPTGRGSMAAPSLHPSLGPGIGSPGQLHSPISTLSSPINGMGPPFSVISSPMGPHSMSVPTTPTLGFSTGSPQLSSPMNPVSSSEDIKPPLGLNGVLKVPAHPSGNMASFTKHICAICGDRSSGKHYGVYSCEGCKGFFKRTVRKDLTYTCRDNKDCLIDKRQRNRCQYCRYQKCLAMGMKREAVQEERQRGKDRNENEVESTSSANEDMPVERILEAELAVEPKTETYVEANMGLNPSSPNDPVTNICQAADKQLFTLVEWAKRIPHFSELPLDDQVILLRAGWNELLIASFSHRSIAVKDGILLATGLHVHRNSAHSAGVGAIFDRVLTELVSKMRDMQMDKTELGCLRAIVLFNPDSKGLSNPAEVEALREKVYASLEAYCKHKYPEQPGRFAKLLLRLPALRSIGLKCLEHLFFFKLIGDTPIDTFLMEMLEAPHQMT
Experiment: Co-transfection assay (LXRE luciferase reporter), LXRβ
Type: cell-based
Settings: for EC50: CV-1 cells transfected with pCMX-hLXRβ and LXREx1-Tk-Luciferase, 20 hours incubation; for Emax: LXRβ co-transfection, relative to high control 1-(2,4-difluorobenzyl)-2-oxo-6-(4-phenoxyphenyl)-4-(trifluoromethyl)-1,2-dihydropyridine-3-carbonitrile, read-out: % Efficacy
Method in brief: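 Luciferase output from an LXRE-Tk reporter measured after 20 h, 37 °C compound exposure of transiently transfected CV-1 cells expressing human LXRβ with endogenous RXR. EC50 fitted from 11-point half-log dose responses (mean of ≥2 runs); % efficacy versus maximal response of the reference agonist.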

Compound	EC50	Emax
CCCc1nc(-c2ccc(OC(F)(F)F)cc2)c(-c2cc(-c3cccc(S(C)(=O)=O)c3)ccc2-n2cc(C(F)(F)F)nc2C)o1 [Example 602, 5-{3′-(methylsulfonyl)-4-[2-methyl-4-(trifluoromethyl)-1H-imidazol-1-yl]biphenyl-3-yl}-2-propyl-4-{4-[(trifluoromethyl)oxy]phenyl}-1,3-oxazole]	25 nM	87%
CCc1nc(-c2cc(-c3ccc(CO)c(S(C)(=O)=O)c3)ccc2-n2cc(C(F)(F)F)nc2C)c(-c2ccc(OC(F)(F)F)cc2)o1 [Example 519, (3′-(2-ethyl-5-(4-(trifluoromethoxy)phenyl)oxazol-4-yl)-4′-(2-methyl-4-(trifluoromethyl)-1H-imidazol-1-yl)-3-(methylsulfonyl)-[1,1′-biphenyl]-4-yl)methanol]	140 nM	100%
Cc1nc(-c2cc(-c3cc(F)c(CO)c(S(C)(=O)=O)c3)ccc2-n2cc(C(F)(F)F)nc2C)c(-c2ccc(Cl)c(OC(F)F)c2)o1 [Example 459, (3′-(5-(4-chloro-3-(difluoromethoxy)phenyl)-2-methyloxazol-4-yl)-3-fluoro-4′-(2-methyl-4-(trifluoromethyl)-1H-imidazol-1-yl)-5-(methylsulfonyl)biphenyl-4-yl)methanol]	174 nM	77%
COc1ccc(-c2oc(C)nc2-c2cc(-c3cc(F)c(CO)c(S(C)(=O)=O)c3)ccc2-n2cc(C(F)(F)F)nc2C)cn1 [Example 570, (3-fluoro-3′-(5-(6-methoxypyridin-3-yl)-2-methyloxazol-4-yl)-4′-(2-methyl-4-(trifluoromethyl)-1H-imidazol-1-yl)-5-(methylsulfonyl)-[1,1′-biphenyl]-4-yl)methanol]	199 nM	93%
COCc1c(F)cc(-c2ccc(-n3cc(C(F)(F)F)nc3C)c(-n3nncc3-c3ccc(OC(F)(F)F)cc3)c2)cc1S(C)(=O)=O [Example 88, 1-{3′-fluoro-4′-[(methyloxy)methyl]-5′-(methylsulfonyl)-4-[2-methyl-4-(trifluoromethyl)-1H-imidazol-1-yl]biphenyl-3-yl}-5-{4-[(trifluoromethyl)oxy]phenyl}-1H-1,2,3-triazole]	306 nM	111%
Cc1nc(C(F)F)cn1-c1ccc(-c2cc(F)c(CO)c(S(C)(=O)=O)c2)cc1-n1nncc1C(C)c1ccc(Cl)cc1 (stereo not shown) [Example 134, [3′-{5-[1-(4-chlorophenyl)ethyl]-1H-1,2,3-triazol-1-yl}-4′-[4-(difluoromethyl)-2-methyl-1H-imidazol-1-yl]-3-fluoro-5-(methylsulfonyl)biphenyl-4-yl]methanol]	166 nM	68%
Cc1nc(-c2cc(-c3cccc(S(=O)(=O)C(F)F)c3)ccc2-n2cc(C(F)(F)F)nc2C)c(-c2ccc(OC(F)F)c(F)c2)o1 [Example 430, 5-(4-(difluoromethoxy)-3-fluorophenyl)-4-(3′-(difluoromethylsulfonyl)-4-(2-methyl-4-(trifluoromethyl)-1H-imidazol-1-yl)biphenyl-3-yl)-2-methyloxazole]	225 nM	88%
Cc1nc(-c2cc(-c3cc(F)c(CO)c(S(C)(=O)=O)c3)ccc2-n2cc(C(F)(F)F)nc2C)c(-c2ccc(Cl)c(F)c2)o1 [Example 499, (3′-(5-(4-chloro-3-fluorophenyl)-2-methyloxazol-4-yl)-3-fluoro-4′-(2-methyl-4-(trifluoromethyl)-1H-imidazol-1-yl)-5-(methylsulfonyl)biphenyl-4-yl)methanol]	50 nM	74%
COc1cnc(-c2oc(C)nc2-c2cc(-c3cc(F)c(CO)c(S(C)(=O)=O)c3)ccc2-n2cc(C(F)(F)F)nc2C)cn1 [Example 413, (3-fluoro-3′-(5-(5-methoxypyrazin-2-yl)-2-methyloxazol-4-yl)-4′-(2-methyl-4-(trifluoromethyl)-1H-imidazol-1-yl)-5-(methylsulfonyl)biphenyl-4-yl)methanol]	426 nM	63%
Cc1nc(C(F)(F)F)cn1-c1ccc(-c2ccc(CNS(C)(=O)=O)c(S(C)(=O)=O)c2)cc1-n1nncc1-c1ccc(OC(F)(F)F)cc1 [Example 87, N-{[3-(methylsulfonyl)-4′-[2-methyl-4-(trifluoromethyl)-1H-imidazol-1-yl]-3′-(5-{4-[(trifluoromethyl)oxy]phenyl}-1H-1,2,3-triazol-1-yl)biphenyl-4-yl]methyl}methanesulfonamide]	662 nM	89%
Cc1nc(-c2cc(-c3cccc(S(C)(=O)=O)c3)ccc2-n2cc(C(F)(F)F)nc2C)c(-c2cccc(Cl)n2)o1 [Example 441, 5-(6-chloropyridin-2-yl)-2-methyl-4-(4-(2-methyl-4-(trifluoromethyl)-1H-imidazol-1-yl)-3′-(methylsulfonyl)biphenyl-3-yl)oxazole]	1310 nM	38%
Cc1nc(C(F)(F)F)cn1-c1ccc(-c2cccc(S(C)(=O)=O)c2)cc1-n1nncc1-c1ccc(F)cn1 [Example 77, 5-fluoro-2-(1-{3′-(methylsulfonyl)-4-[2-methyl-4-(trifluoromethyl)-1H-imidazol-1-yl]biphenyl-3-yl}-1H-1,2,3-triazol-5-yl)pyridine]	3330 nM	63%
Cc1nc(-c2cc(-c3cccc(S(=O)(=O)N(C)C)c3)ccc2-n2cc(C(F)(F)F)nc2C)c(-c2ccc(OC(F)F)cc2)o1 [Example 541, 3′-(5-(4-(difluoromethoxy)phenyl)-2-methyloxazol-4-yl)-dimethyl-4′-(2-methyl-4-(trifluoromethyl)-1H-imidazol-1-yl)-[1,1′-biphenyl]-3-sulfonamide]	25 nM	90%
Cc1nc(C(F)(F)F)cn1-c1ccc(-c2cc(F)c(CO)c(S(C)(=O)=O)c2)c(Cl)c1-n1nncc1-c1ccc(Cl)cc1Cl [Example 103, {2′-chloro-3′-[5-(2,4-dichlorophenyl)-1H-1,2,3-triazol-1-yl]-3-fluoro-5-(methylsulfonyl)-4′-[2-methyl-4-(trifluoromethyl)-1H-imidazol-1-yl]biphenyl-4-yl}methanol]	1240 nM	52%
CCS(=O)(=O)c1cccc(-c2ccc(-n3cc(C(F)F)nc3C)c(-c3cnnn3Cc3ccc(Cl)cc3)c2)c1 [Example 247, 1-(4-chlorobenzyl)-5-(4-(4-(difluoromethyl)-2-methyl-1H-imidazol-1-yl)-3′-(ethylsulfonyl)-[1,1′-biphenyl]-3-yl)-1H-1,2,3-triazole]	315 nM	99%
Cc1nc(C(F)(F)F)cn1-c1c(F)cc(-c2cc(F)c(CO)c(S(C)(=O)=O)c2)cc1-n1nncc1-c1ccc(Cl)cc1Cl [Example 200, {3′-[5-(2,4-dichlorophenyl)-1H-1,2,3-triazol-1-yl]-3,5′-difluoro-5-(methylsulfonyl)-4′-[2-methyl-4-(trifluoromethyl)-1H-imidazol-1-yl]biphenyl-4-yl}methanol]	74 nM	83%
CCC(F)(F)c1cn(-c2ccc(-c3cccc(S(N)(=O)=O)c3)cc2-n2nncc2-c2ccc(OC(F)(F)F)cc2)c(C)n1 [Example 183, 4′-[4-(1,1-difluoropropyl)-2-methyl-1H-imidazol-1-yl]-3′-(5-{4-[(trifluoromethyl)oxy]phenyl}-1H-1,2,3-triazol-1-yl)biphenyl-3-sulfonamide]	1480 nM	74%
